Assay results reported in patent US6762188B1, “Pharmaceutically active benzoquinazoline compounds” (SmithKline Beecham Corporation, priority 1990, dated 2004).
Like-named read-outs stand apart in the source and are kept apart here.

How the values were obtained:
[1] = molecular target: T1, Mammalian Thymidylate Synthase (Homo sapiens, UniProt P04818); assay: Thymidylate synthase inhibition, tritium release assay; format: biochemical
T1 construct: made in house; host or cells: Escherichia coli

[2] = system: SW480 human colon adenocarcinoma; assay: Tumor cell culture cytotoxicity (MTT dye reduction), SW480
Method: SW480 and WiDr colon adenocarcinomas, MCF-7 breast adenocarcinoma, A427 lung carcinoma and MOLT-4 T-cell leukemia were used for the primary screening of compounds. […] MCF-7, A427 and SW480 were grown in the above medium further supplemented with sodium pyruvate.
Cells are seeded into 96-well plates using a Perkin-Elmer Pro/pette. SW480 and A427 were seeded at 8,000 cells per well, MCF-7 at 10,000, Widr at 7500, and MOLT-4 at 12,500 cells per well, all in 150 µl of medium. Prior to the addition of drugs, cultures were incubated for 24 hrs at 37°. Compounds were added at 2×concentration in 150 l of medium and each concentration was assayed in triplicate. If DMSO or ethanol were used to solubilize compounds, appropriate controls were run if the concentration exceeded 0.01%. Cultures were incubated for 72 hours (96 hours for SW480 and MCF-7) in a 37° humidified incubator at 5% CO2. Inhibition of cell growth was measured using the MTT dye reduction assay.
Cell dilutions for a standard curve were prepared from a 72 hour log-phase culture. Serial dilutions were seeded in triplicate in 96-well plates and incubated at 37 degrees for one hour. MTT (3-(4,5-dimethylthiazol-2-yl)-2,5-diphenyltetrazolium bromide) was dissolved in PBS at 5 mg/ml and sonicated for 30 seconds. Using the Perkin Elmer Pro/pette, 200 μl of medium was removed and 100 μl of MTT added to the wells of the standard curve and test plates. Suspension cultures were spun for 5 min at 1000 rpm before removing medium from the wells. Plates were incubated for 1 hour at 370 on a platform shaker. Following this incubation 100 ml of medium was removed from the wells and 100 μl of DMSO added to each well. The plates were sonicated for approximately 10 seconds to solubilize the precipitated formazan dye. The absorbance of each well was measured using a Titertek Multiscan MC microtiter plate reader at 570 nm with a reference wavelength of 750 nm. Data was collected using a Mariachi Seed-2 and stored and analyzed using an IBM-AT and Lotus 1-2-3 software.

[3] = Table A, vs. mammalian enzymes, read-out: I50
[4] = Homo sapiens, SW480, read-out: Cell Culture Cytotoxicity CCCT SW-480, Table F, fully aromatic p-aminobenzoylglutamates
[5] = Homo sapiens, SW480, read-out: Tumor Cell Culture Cytotoxicity IC50 SW480, Table E, fully aromatic 3-methyl derivatives

T1 sequence (P04818 whole entry): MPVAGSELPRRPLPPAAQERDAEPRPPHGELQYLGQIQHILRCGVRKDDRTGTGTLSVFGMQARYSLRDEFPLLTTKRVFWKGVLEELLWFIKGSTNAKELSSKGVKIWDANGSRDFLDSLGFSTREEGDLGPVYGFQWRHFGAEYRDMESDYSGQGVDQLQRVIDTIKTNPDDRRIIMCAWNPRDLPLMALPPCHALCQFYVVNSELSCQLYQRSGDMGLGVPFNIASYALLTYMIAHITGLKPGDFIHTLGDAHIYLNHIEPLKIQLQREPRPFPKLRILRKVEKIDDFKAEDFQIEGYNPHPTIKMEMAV

IC50 [1, 3] [nM] | IC50 [1] [nM] | SMILES | other results
< 1000 |  | Cc1ccc2c(c1)-c1c(O)nc(N)nc1CC2 [3-Amino-5,6-dihydro-9-methylbenzo(f)quinazolin-1(2H)-one] | 
 |  | Cc1nc2c(c(=O)[nH]1)-c1cc(S(=O)(=O)Nc3ccc(F)cc3)ccc1CC2 [4′-Fluoro-1,2,5,6-tetrahydro-3-methyl-1-oxobenzo(f)quinazoline-9-sulfonanilide] | IC50 ([2]; Homo sapiens, SW480, read-out: Tumor Cell Culture Cytotoxicity IC50 SW480, Table D, 5,6-dihydro 3-methyl derivatives): 25000 nM
 |  | Cc1nc2ccc3ccc(/C=C/c4ccc(C(=O)N[C@@H](CCC(=O)O)C(=O)O)cc4)cc3c2c(=O)[nH]1 [(E)-N-(4-(2(1,2-Dihydro-3-methyl-1-oxobenzo[f]quinazolin-9-yl)vinyl)benzoyl)-L-glutamic acid] | IC50 [2, 4]: > 100000 nM
 |  | Cc1nc2ccc3ccc(CNc4ccc([N+](=O)[O-])cc4)cc3c2c(=O)[nH]1 [3-Methyl-9-((4-nitroanilino)methyl)benzo)(f)quinazolin-1(2H)-one] | IC50 [2, 5]: 400 nM
1000 to 300000 |  | Nc1nc(O)c2c(ccc3cccc(N)c32)n1 [3,10-diaminobenzo(f)quinazolin-1(2H)-one] | 
< 1000 |  | CSc1ccc2ccc3nc(N)nc(O)c3c2c1 [3-Amino-9-(methylthio)benzo(f)quinazolin-1(2H)-one] | 
1000 to 300000 |  | Nc1ccc2c(c1)-c1c(nc(N)[nH]c1=O)CC2 [3,9-Diamino-5,6-dihydrobenzo(f)quinazolin-1(2H)-one] | 
1000 to 300000 |  | Nc1cc(N)c2c(ccc3nc(N)[nH]c(=O)c32)c1 [3,8,10-Triaminobenzo(f)quinazolin-1(2H)-one] | 
1000 to 300000 |  | CCSc1ccc2ccc3nc(N)nc(O)c3c2c1 [3-Amino-9-(ethylthio)benzo(f)quinazolin-1(2H)-one] | 
 | 1000 to 300000 | COc1ccc2ccc3nc(N)[nH]c(=O)c3c2c1 [3-Amino-9-methoxybenzo(f)quinazolin-1(2H)-one] | 
 |  | Cc1nc2ccc3ccc(CCc4ccc(C(=O)N[C@@H](CCC(=O)O)C(=O)O)cc4)cc3c2c(=O)[nH]1 [N-(4-(2-(1,2-Dihydro-3-methyl-1-oxobenzo[f]quinazolin-9-yl)ethyl)benzoyl)-L-glutamic acid] | IC50 [2, 4]: 9000 nM
 | < 1000 | Cc1nc2ccc3ccc(S(=O)(=O)Nc4ccc(C(=O)N[C@@H](CCC(=O)O)C(=O)O)cc4)cc3c2c(=O)[nH]1 [N-(4-((1,2-Dihydro-3-methyl-1-oxabenzo(f)quinazolin-9-yl)sulfonamido)benzoyl)-L-glutamic acid] | 
 |  | Cc1nc2ccc3ccc(CNc4ccc5c(=O)n([C@@H](CCC(=O)O)C(=O)O)sc5c4)cc3c2c(=O)[nH]1 [CH3,9-CH2NH, 2′-SNglu, (S)-2-(2.3-Dihydro-6-(((1,2-dihydro-3-methyl-1-oxobenzo[f]quinazolin-9-yl)methyl)amino)-3-oxo-1,2-benxisothiazol-2-yl)glutaric acid] | IC50 ([2]; read-out: Cell Culture Cytotoxicity CCCT SW-480, Table F, fully aromatic p-aminobenzoylglutamates): 2000 nM
 |  | Cc1nc2ccc3ccc(CNc4ccc(C(=O)CC(CCC(=O)O)C(=O)O)cc4)cc3c2c(=O)[nH]1 (racemic) [(RS)-2-(2-(4-(((1,2-Dihydro-3-methyl-1-oxobenzo[f]quinazolin-9-yl)methyl)amino)phenyl)-2-oxoethyl)glutaric acid] | IC50 [2, 5]: 30 nM
1000 to 300000 |  | Nc1nc(O)c2c(ccc3c(N)cccc32)n1 [3,7-Diaminobenzo(f)quinazolin-1(2H)-one] | 
1000 to 300000 |  | Nc1nc2c(c(=O)[nH]1)-c1cc(O)ccc1CC2 [3-Amino-5,6-dihydro-9-hydroxybenzo(f)quinazolin-1(2H)-one] | 
 |  | Nc1nc2ccc3ccc(NS(=O)(=O)c4ccc(C(=O)N[C@@H](CCC(=O)O)C(=O)O)cc4)cc3c2c(=O)[nH]1 [N-(4-(((3-Amino-1,2-dihydro-1-oxobenzo(f)quinazolin-9-yl)amino)sulfonyl)benzoyl)-L-glutamic acid] | IC50 [2, 4]: > 100000 nM
 |  | Cc1nc2ccc3ccc(CNc4ccc(C(=O)N[C@@H](CCC(=O)O)C(=O)O)s4)cc3c2c(=O)[nH]1 [N-((5-(((1,2-Dihydro-3-methyl-1-oxobenzo[f]quinazolin-9-yl)methyl)amino-2-thienyl)carbonyl)-L-glutamic acid] | IC50 ([2]; read-out: Tumor Cell Culture Cytotoxicity IC50 SW480, Table E, fully aromatic 3-methyl derivatives): 100 nM
 | < 1000 | Nc1nc(O)c2c(ccc3cc(N)c(Br)cc32)n1 [3,8-Diamino-9-bromobenzo(f)quinazolin-1(2H)-one] | 
1000 to 300000 |  | Cc1nc2c(c(=O)[nH]1)-c1cccc(Cl)c1CC2 [7-Chloro-5,6-dihydro-3-methylbenzo(f)quinazolin-1(2H)-one] | 

IC50 [1, 3] [nM] | IC50 [1] [nM] | SMILES | other results
1000 to 300000 |  | CC1Cc2nc(N)nc(O)c2-c2ccc(Cl)cc21 (stereo not drawn) [3-Amino-8-chloro-5,6-dihydro-6-methylbenzo(f)quinazolin-1(2H)-one] | 
 | < 1000 | C#Cc1ccc2ccc3nc(N)[nH]c(=O)c3c2c1 [3-Amino-9-ethynylbenzo(f)quinazolin-1(2H)-one] | 
1000 to 300000 |  | Nc1nc(O)c2c(n1)CCc1c(I)cccc1-2 [3-Amino-5,6-dihydro-7-iodobenzo(f)quinazolin-1(2H)-one] | 
 | 1000 to 300000 | CCOc1ccc2ccc3nc(N)[nH]c(=O)c3c2c1 [3-Amino-9-ethoxybenzo(f)quinazolin-1(2H)-one] | 
1000 to 300000 |  | Cc1cc2nc(N)[nH]c(=O)c2c2ccc(Cl)cc12 [3-Amino-8-chloro-6-methylbenzo(f)quinazolin-1(2H)-one] | 
1000 to 300000 |  | Nc1nc(O)c2c(cc(CO)c3ccccc32)n1 [3-Amino-6-(hydroxymethyl)benzo(f)quinazolin-1(2H)-one] | 
 | < 1000 | Nc1nc(O)c2c(ccc3ccc(I)cc32)n1 [3-Amino-9-iodobenzo(f)quinazolin-1(2H)-one] | 
 | < 1000 | Nc1nc(O)c2c(ccc3ccc(F)cc32)n1 [3-Amino-9-fluorobenzo(f)quinazolin-1(2H)-one] | 
 | 1000 to 300000 | Nc1nc2ccc3cc(F)ccc3c2c(=O)[nH]1 [3-Amino-8-fluorobenzo(f)quinazolin-1(2H)-one] | 
 | < 1000 | Nc1nc(O)c2c(ccc3ccc(Br)cc32)n1 [3-Amino-9-bromobenzo(f)quinazolin-1(2H)-one] | 
 | 1000 to 300000 | Nc1nc2ccc3cc([N+](=O)[O-])c(Br)cc3c2c(=O)[nH]1 [3-Amino-9-bromo-8-nitrobenzo(f)quinazolin-1(2H)-one] | 
 | < 1000 | Nc1nc2ccc3cc(Cl)c(Cl)cc3c2c(=O)[nH]1 [3-Amino-8,9-dichlorobenzo(f)quinazolin-1(2H)-one] | 
1000 to 300000 |  | Nc1nc2ccc3cc([N+](=O)[O-])cc([N+](=O)[O-])c3c2c(=O)[nH]1 [3-Amino-8,10-dinitrobenzo(f)quinazolin-1(2H)-one] | 
< 1000 |  | CC1Cc2nc(N)nc(O)c2-c2cc(Cl)ccc21 (stereo not drawn) [3-Amino-9-chloro-5,6-dihydro-6-methylbenzo(f)quinazolin-1(2H)-one] | 
1000 to 300000 |  | Nc1nc2ccc3cc(Cl)ccc3c2c(=O)[nH]1 [3-Amino-8-chlorobenzo(f)quinazolin-1(2H)-one] | 
 | < 1000 | Nc1nc2ccc3ccc(Cl)cc3c2c(=O)[nH]1 [3-Amino-9-chlorobenzo(f)quinazolin-1(2H)-one] | 
1000 to 300000 |  | CC1(C)Cc2nc(N)nc(O)c2-c2ccccc21 [3-Amino-5,6-dihydro-6,6-dimethylbenzo(f)quinazolin-1(2H)-one] | 
1000 to 300000 |  | Nc1nc2ccc3cccc([N+](=O)[O-])c3c2c(=O)[nH]1 [3-Amino-10-nitrobenzo(f)quinazolin-1(2H)-one] | 
1000 to 300000 |  | Nc1nc2c(c(=O)[nH]1)-c1cccc(F)c1CC2 [3-Amino-7-fluoro-5,6-dihydrobenzo(f)quinazolin-1(2H)-one] | 

SMILES | IC50 [1, 3] [nM] | IC50 [1] [nM] | other results
Cc1cc(C)c2c(c1)-c1c(nc(N)[nH]c1=O)CC2 [3-Amino-5,6-dihydro-7,9-dimethylbenzo(f)quinazolin-1(2H)-one] | 1000 to 300000 |  | 
Nc1ccc2c(c1)CCc1nc(N)[nH]c(=O)c1-2 [3,8-Diamino-5,6-dihydrobenzo(f)quinazolin-1(2H)-one] | 1000 to 300000 |  | 
Nc1nc(O)c2c(ccc3cc(Br)c([N+](=O)[O-])cc32)n1 [3-Amino-8-bromo-9-nitrobenzo(f)quinazolin-1(2H)-one] | 1000 to 300000 |  | 
CN(C)S(=O)(=O)c1ccc2ccc3nc(N)[nH]c(=O)c3c2c1 [3-Amino-N,N-dimethyl-1,2-dihydro-1-oxobenzo(f)quinazoline-9-sulfonamide] |  | 1000 to 300000 | 
Cc1cc2nc(N)[nH]c(=O)c2c2ccccc12 [3-Amino-6-methylbenzo(f)quinazolin-1(2H)-one] | 1000 to 300000 |  | 
Nc1nc2c(c(=O)[nH]1)-c1ccc(Cl)cc1CC2 [3-Amino-8-chloro-5,6-dihydrobenzo(f)quinazolin-1(2H)-one] | 1000 to 300000 |  | 
Nc1nc2c(c(=O)[nH]1)-c1ccc(S(N)(=O)=O)cc1CC2 [3-Amino-1,2,5,6-tetrahydro-1-oxobenzo(f)quinazoline-8-sulfonamide] |  | 1000 to 300000 | 
Nc1nc(O)c2c(n1)CCc1cc([N+](=O)[O-])ccc1-2 [3-Amino-5,6-dihydro-8-nitro(f)quinazolin-1(2H)-one] |  | 1000 to 300000 | 
Nc1nc2ccc3c(Br)c(N)c(Br)cc3c2c(=O)[nH]1 [3,8-Diamino-7,9-dibromobenzo(f)quinazolin-1(2H)-one] | 1000 to 300000 |  | 
Cc1nc2c(c(=O)[nH]1)-c1cc(S(=O)(=O)Cl)ccc1CC2 [1,2,5,6-Tetrahydro-3-methyl-1-oxobenzo(f)quinazoline-9-sulfonylchloride] |  | 1000 to 300000 | 
Nc1nc2c(c(=O)[nH]1)-c1cccc(Br)c1CC2 [3-Amino-7-bromo-5,6-dihydrobenzo(f)quinazolin-1(2H)-one] | 1000 to 300000 |  | 
Cc1cccc2c1CCc1nc(N)[nH]c(=O)c1-2 [3-Amino-5,6-dihydro-7-methylbenzo(f)quinazolin-1(2H)-one] | 1000 to 300000 |  | 
CC1Cc2nc(N)nc(O)c2-c2ccccc21 (stereo not drawn) [3-Amino-5,6-dihydro-6-methylbenzo(f)quinazolin-1(2H)-one] | 1000 to 300000 |  | 
Nc1nc2ccc3ccc(NS(=O)(=O)c4ccc(C(=O)O)cc4)cc3c2c(=O)[nH]1 [4-(((3-Amino-1,2-dihydro-1-oxobenzo(f)quinazolin-9-yl)amino)sulfonyl)benzoic acid] |  | < 1000 | 
Cc1cc(C)c2ccc3nc(N)[nH]c(=O)c3c2c1 [3-Amino-7,9-dimethylbenzo(f)quinazolin-1(2H)-one] | 1000 to 300000 |  | 
